Experimental data taken from patent US20250122192A1, “5-PYRIMIDINECARBOXAMIDE DERIVATIVES AND METHODS OF USING THE SAME” (Rgenta Therapeutics, Inc., priority 2021, published 2025).
Counter-ions that a name gives are not always drawn.

tested on: PMS1; experiment: Mini-gene reporter assay-PMS1; type: cell-based; settings: Homo sapiens, HEK293, PMS1 mini-gene firefly luciferase reporter transiently transfected into HEK293 cells; read-out: PMS1 IC50
In short: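 HEK293 cells transiently transfected with a mini-gene construct: skipped exon with flanking introns and exons fused to firefly luciferase in pcDNA3.1, so exon inclusion raises luciferase signal. Compounds tested in duplicate dilutions, luminescence read after incubation, EC50 fitted by Levenberg-Marquardt.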

Row | Compound | IC50 [nM]
1 | CCOc1nc(N2CC3C4CCC(NC4)C3C2)ncc1C(=O)Nc1cn2cc(C)nc2c(C)n1 (centres unmarked) [Compound 44] | 1000 to 3000
2 | COc1nc(N2CC3CNCC3C2)ncc1C(=O)Nc1cn2cc(C)nc2c(C)n1 (centres unmarked) [Compound 22, N-{2,8-dimethylimidazo[1,2-a]pyrazin-6-yl}-4-methoxy-2-{octahydropyrrolo[3,4-c]pyrrol-2-yl}pyrimidine-5-carboxamide] | < 500
3 | CCOc1nc(N(C)C[C@H]2[C@@H]3CNC[C@@H]32)ncc1C(=O)Nc1cc(F)c2nc(C)cn2c1 [Compound 117] | 1000 to 3000
4 | CCOc1nc(N2CCC3(CC2)CNC3)ncc1C(=O)Nc1cn2cc(C)nc2c(C)n1 [Compound 86] | < 500
5 | CCNC1CCN(c2ncc(C(=O)Nc3cc(F)c4nc(C)cn4c3)c(OCC)n2)C1 (centres unmarked) [Compound 154] | < 500
6 | CCOc1nc(N(CC)C2CCCNCC2)ncc1C(=O)Nc1cn2cc(C)nc2c(C)n1 (centres unmarked) [Compound 249] | > 3000
7 | CCOc1nc(N2CC3CNCC3C2)ncc1C(=O)Nc1cc(F)c2nc(C)cn2c1 (centres unmarked) [Compound 8, 4-ethoxy-N-{8-fluoro-2-methylimidazo[1,2-a]pyridin-6-yl}-2-{octahydropyrrolo[3,4-c]pyrrol-2-yl}pyrimidine-5-carboxamide] | < 500
8 | CCOc1nc(N2CC(C3CNC3)C2)ncc1C(=O)Nc1cc(F)c2nc(C)cn2c1 [Compound 143] | < 500
9 | CCOc1nc(N2CCN[C@H]3CC[C@H]32)ncc1C(=O)Nc1cn2cc(C)nc2c(C)n1 (racemic) [Compound 101] | 500 to 1000
10 | CCOc1nc(N2CC[C@@H]3CNC[C@@H]32)ncc1C(=O)Nc1cc(F)c2nc(C)cn2c1 (racemic) [Compound 209] | < 500
11 | CCOc1nc(N(CC)C2CCNCC2)ncc1C(=O)Nc1cc(F)c2nn(C)cc2c1 [Compound 258, 4-ethoxy-2-(ethyl(piperidin-4-yl)amino)-N-(7-fluoro-2-methyl-2H-indazol-5-yl)pyrimidine-5-carboxamide formate] | < 500
12 | CCOc1nc(N2CCN[C@H](C)C2)ncc1C(=O)Nc1cc(F)c2nc(C)cn2c1 [Compound 3, 4-ethoxy-N-{8-fluoro-2-methylimidazo[1,2-a]pyridin-6-yl}-2-[(3R)-3-methylpiperazin-1-yl]pyrimidine-5-carboxamide] | 500 to 1000
13 | CCOc1nc(N2CCN[C@H](C)C2)ncc1C(=O)Nc1cc(F)c2nn(C)cc2c1 [Compound 264, (R)-4-ethoxy-N-(7-fluoro-2-methyl-2H-indazol-5-yl)-2-(3-methylpiperazin-1-yl)pyrimidine-5-carboxamide formic acid] | 1000 to 3000
14 | CCOc1nc(N2CC[C@@H]3NCCC[C@@H]3C2)ncc1C(=O)Nc1cc(F)c2nc(C)cn2c1 (racemic) [Compound 139] | < 500
15 | CCOc1nc(N(C)[C@@H]2C[C@H]3CC[C@@H](C2)N3)ncc1C(=O)Nc1cc(F)c2nc(C)cn2c1 [Compound 186] | < 500
16 | CCOc1nc(N2CCNC(C)C2)ncc1C(=O)Nc1cc(F)c2nc(C)cn2c1 (centres unmarked) [Compound 243] | < 500
17 | CCNC1CCN(c2ncc(C(=O)Nc3cc(F)c4nc(C)cn4c3)c(OCC)n2)CC1 [Compound 214] | < 500
18 | CCOc1nc(N2C[C@@H](C)N[C@@H](C)C2)ncc1C(=O)Nc1cc(F)c2nc(C)cn2c1 [Compound 231] | < 500
19 | CCOc1nc(N2CCC3(CCNC3)CC2)ncc1C(=O)Nc1cc(F)c2nc(C)cn2c1 [Compound 225] | < 500
20 | CCOc1nc(N(C)CC2CCNC2)ncc1C(=O)Nc1cc(F)c2nc(C)cn2c1 (centres unmarked) [Compound 210] | 500 to 1000
21 | CCOc1nc(N(C)[C@@H]2CNC[C@H]2O)ncc1C(=O)Nc1cc(F)c2nc(C)cn2c1 (racemic) [Compound 174] | 1000 to 3000
22 | CCOc1nc(N2CCCC(C3CCCCN3)C2)ncc1C(=O)Nc1cn2cc(C)nc2c(C)n1 (centres unmarked) [Compound 34] | > 3000
23 | CCOc1nc(N2CCCC3(CCNC3)C2)ncc1C(=O)Nc1cc(F)c2nc(C)cn2c1 (centres unmarked) [Compound 183] | > 3000
24 | CCOc1nc(N2CCNCC3(CC3)C2)ncc1C(=O)Nc1cc(F)c2nc(C)cn2c1 [Compound 116] | < 500
25 | CCOc1nc(N2CCC(N(C)C)C2)ncc1C(=O)Nc1cc(F)c2nc(C)cn2c1 (centres unmarked) [Compound 269, 2-(3-(dimethylamino)pyrrolidin-1-yl)-4-ethoxy-N-(8-fluoro-2-methylimidazo[1,2-a]pyridin-6-yl)pyrimidine-5-carboxamide] | 1000 to 3000
26 | CCOc1nc(N2CCN[C@@H](C(C)C)C2)ncc1C(=O)Nc1cc(F)c2nc(C)cn2c1 [Compound 226] | < 500

Row | Compound | IC50 [nM]
27 | CCOc1nc(N(C)C2CCNCC2C)ncc1C(=O)Nc1cc(F)c2nc(C)cn2c1 (centres unmarked) [Compound 160] | < 500
28 | CCOc1nc(N2CCC(N3CCNCC3)C2)ncc1C(=O)Nc1cc(F)c2nc(C)cn2c1 (centres unmarked) [Compound 107] | 1000 to 3000
29 | CCOc1nc(N2CCNCC2)ncc1C(=O)Nc1ccc2nn(C)cc2c1 [Compound 25, 4-ethoxy-N-(2-methyl-2H-indazol-5-yl)-2-(piperazin-1-yl)pyrimidine-5-carboxamide] | 1000 to 3000
30 | COc1nc(N2CCNCC2)ncc1C(=O)Nc1cc(F)c2nc(C)cn2c1 [Compound 1, N-(8-fluoro-2-methylimidazo[1,2-a]pyridin-6-yl)-4-methoxy-2-(piperazin-1-yl)pyrimidine-5-carboxamide, HCl] | 1000 to 3000
31 | CCOc1nc(N2CCNCC2C)ncc1C(=O)Nc1cn2cc(C)nc2c(C)n1 (centres unmarked) [Compound 42] | 500 to 1000
32 | CCNC1CCCN(c2ncc(C(=O)Nc3cc(F)c4nc(C)cn4c3)c(OCC)n2)C1 (centres unmarked) [Compound 176] | 500 to 1000
33 | CCOc1nc(N2CC[C@@H](NC)C2)ncc1C(=O)Nc1cc(F)c2nn(C)cc2c1 [Compound 282, (R)-4-ethoxy-N-(7-fluoro-2-methyl-2H-indazol-5-yl)-2-(3-(methylamino)pyrrolidin-1-yl)pyrimidine-5-carboxamide formate] | < 500
34 | CCOc1nc(N2CC(NC)C2)ncc1C(=O)Nc1cn2cc(C)nc2c(C)n1 [Compound 43] | > 3000
35 | CCOc1nc(N2CC[C@H](NC)C2)ncc1C(=O)Nc1ccc2nc(C)cn2n1 [Compound 318] | > 3000
36 | CCOc1nc(N2CCC3(CCCN3)CC2)ncc1C(=O)Nc1cn2cc(C)nc2c(C)n1 [Compound 54] | < 500
37 | CCOc1nc(N2CC3(CCNC3)C2)ncc1C(=O)Nc1cn2cc(C)nc2c(C)n1 [Compound 51] | < 500
38 | CCOc1nc(N2CC[C@H](NC)C2)ncc1C(=O)Nc1cc(F)c2nn(C)cc2c1 [Compound 277, (S)-4-ethoxy-N-(7-fluoro-2-methyl-2H-indazol-5-yl)-2-(3-(methylamino)pyrrolidin-1-yl)pyrimidine-5-carboxamide 4-methylbenzenesulfinate] | < 500
39 | CCOc1nc(N2CCC3(CC2)CNC3)ncc1C(=O)Nc1cc(F)c2nc(C)cn2c1 [Compound 235] | < 500
40 | CCOc1nc(N2CC[C@@H](CN(C)C)C2)ncc1C(=O)Nc1cc(F)c2nc(C)cn2c1 [Compound 305, (S)-2-(3-((dimethylamino)methyl)pyrrolidin-1-yl)-4-ethoxy-N-(8-fluoro-2-methylimidazo[1,2-a]pyridin-6-yl)pyrimidine-5-carboxamide formate] | 500 to 1000
41 | CCOc1nc(N(C)C2CCNC2)ncc1C(=O)Nc1cc(F)c2nc(C)cn2c1 (centres unmarked) [Compound 238] | < 500
42 | CCOc1nc(N2CCNCC2C2CC2)ncc1C(=O)Nc1cc(F)c2nc(C)cn2c1 (centres unmarked) [Compound 113] | 1000 to 3000
43 | CCOc1nc(N2C[C@]3(C)CNC[C@]3(C)C2)ncc1C(=O)Nc1cc(F)c2nc(C)cn2c1 [Compound 148] | 1000 to 3000
44 | CCOc1nc(N2CCC(NC)C2)ncc1C(=O)Nc1cnc2nn(C)cc2c1 (centres unmarked) [Compound 276, 4-ethoxy-N-(2-methyl-2H-pyrazolo[3,4-b]pyridin-5-yl)-2-(3-(methylamino)pyrrolidin-1-yl)pyrimidine-5-carboxamide formate] | > 3000
45 | CCOc1nc(N2CCNCC2)ncc1C(=O)Nc1cc2cn(C)nc2c(F)c1C [Compound 307, 4-ethoxy-N-(7-fluoro-2,6-dimethyl-2H-indazol-5-yl)-2-(piperazin-1-yl)pyrimidine-5-carboxamide hydrochloride] | 1000 to 3000
46 | CCOc1nc(N2CCO[C@H]3CNC[C@H]32)ncc1C(=O)Nc1cc(F)c2nc(C)cn2c1 (racemic) [Compound 177] | 1000 to 3000
47 | CCOc1nc(N2CCNCC2)ncc1C(=O)Nc1cc(OC)c2nc(C)cn2c1 [Compound 27, 4-ethoxy-N-{8-methoxy-2-methylimidazo[1,2-a]pyridin-6-yl}-2-(piperazin-1-yl)pyrimidine-5-carboxamide] | 500 to 1000
48 | CCOc1nc(N2CCC(C3CCCN3)C2)ncc1C(=O)Nc1cn2cc(C)nc2c(C)n1 (centres unmarked) [Compound 38] | 1000 to 3000
49 | CCOc1nc(N2CCCC(C3CCCCN3)C2)ncc1C(=O)Nc1cc(F)c2nc(C)cn2c1 (centres unmarked) [Compound 147] | < 500
50 | CCOc1nc(N2CC[C@@H](NC)C2)ncc1C(=O)Nc1ccc2nc(C)cn2c1 [Compound 289, (R)-4-ethoxy-2-(3-(methylamino)pyrrolidin-1-yl)-N-(2-methylimidazo[1,2-a]pyridin-6-yl)pyrimidine-5-carboxamide formate] | 1000 to 3000
51 | CCOc1nc(N2CC3CCC2CN3)ncc1C(=O)Nc1cn2cc(C)nc2c(C)n1 (centres unmarked) [Compound 53] | 500 to 1000
52 | CCOc1nc(N2CCCC3NCCCC32)ncc1C(=O)Nc1cc(F)c2nc(C)cn2c1 (centres unmarked) [Compound 122] | 500 to 1000

same assay, conditions: Homo sapiens; at 5 μM; PMS1 mini-gene firefly luciferase reporter in HEK293 cells; read-out: PMS1% Effect at 5 μM

Row | Compound | activation at 5 µM [%]
53 | CCOc1nc(N2CCCC2C(=O)N2CCNCC2)ncc1C(=O)Nc1cc(F)c2nc(C)cn2c1 (centres unmarked) [Compound 196] | < 50
54 | CCOc1nc(N2CCO[C@H]3CNC[C@H]32)ncc1C(=O)Nc1cn2cc(C)nc2c(C)n1 (racemic) [Compound 93] | < 50
55 | CCOc1nc(N2CC(CO)C3(CCNCC3)C2)ncc1C(=O)Nc1cn2cc(C)nc2c(C)n1 (centres unmarked) [Compound 91] | < 50
56 | CCOc1nc(N2CCC(C3(O)CCNCC3)CC2)ncc1C(=O)Nc1cn2cc(C)nc2c(C)n1 [Compound 66] | < 50
